In patent publication US20260049289A1, “ARRAY PLATFORM FOR HIGH-THROUGHPUT ORGANOID PROFILING” (CZ Biohub SF, LLC, priority 2022, published 2026):

Tested on: patient-derived pancreatic ductal adenocarcinoma (PDAC) organoids
Test: Drug testing of patient-derived PDAC organoids treated with gemcitabine in the microwell platform
Type: cell-based, human
Conditions: PDAC organoids derived from the same parental cells, imaging (FIG. 6)
Source text: FIG. 6: Representative drug evaluation of patient-derived pancreatic ductal adenocarcinoma organoids treated with gemcitabine. Upper panel, organoids sensitive to gemcitabine; lower panel, organoids resistance to gemcitabine. Organoids are a desirable choice for drug screening studies because they retain 3D cellular architecture and therefore recapitulate physiological conditions to a higher degree than traditional cell lines. […] Organoids sensitive to gemcitabine (FIG. 6, top panel) were growth-stunted and/or dissociated compared to resistant organoids (FIG. 6, bottom panel). Whole organoids that display resistance to a drug, can be retrieved and further evaluated, e.g., for genomic changes and/or changes in RNA expression profiles, to evaluate mechanisms of drug resistance, for example, innate versus acquired resistance.

Nc1ccn([C@@H]2O[C@H](CO)[C@@H](O)C2(F)F)c(=O)n1 [gemcitabine]
observed drug response of single organoids (growth, dissociation): heterogeneity in observed drug response
